Results: patent US7238725B2, “Tricyclic compounds useful for the treatment of inflammatory and allergic disorders: process for their preparation and pharmaceutical compositions containing them” (Glenmark Pharmaceuticals Ltd., priority 2002, dated 2007)

system: not given; assay: not given; conditions: not given

Compound | melting point
O=C(Nc1cccnc1)c1ccc(OC(F)F)c2oc3ccc(C(F)(F)F)cc3c12 [Example 16, N-(pyrid-3-yl)-4-difluoromethoxy-8-trifluoromethyl dibenzo[b,d]furan-1-carboxamide] | 235 to 236 °C
O=C(Nc1ccccn1)c1ccc(OC(F)F)c2oc3ccc(C(F)(F)F)cc3c12 [Example 18, N-(pyrid-2-yl)-4-difluoromethoxy-8-trifluoromethyl dibenzo[b,d]furan-1-carboxamide] | 169 to 170 °C
O=C(Nc1ccc(Cl)cn1)c1ccc(OC(F)F)c2oc3ccccc3c12 [Example 24, N-(5-chloropyrid-2-yl)-4-difluoromethoxy dibenzo[b,d]furan-1-carboxamide] | 155 to 157 °C
O=C(Nc1c(Cl)cncc1Cl)c1ccc(OCc2ccccc2)c2oc3ccccc3c12 [Example 37, N-(3,5-dichloropyrid-4-yl)-4-benzyloxy dibenzo[b,d]furan-1-carboxamide] | 269 to 270 °C (dec.)
COc1c(C(=O)Nc2c(Cl)cncc2Cl)ccc2c1oc1ccccc12 [Example 52, N-(3,5-dichloropyrid-4-yl)-4-methoxy dibenzo[b,d]furan-3-carboxamide] | 176 °C (dec.)
COc1ccc(S(=O)(=O)Nc2c(Cl)cncc2Cl)c2c1oc1ccccc12 [Example 54, N-(3,5-dichloropyrid-4-yl)-4-methoxy dibenzo[b,d]furan-1-sulfonamide] | 242 to 244 °C

molecular target: PDE4 enzyme; assay: Inhibition of Phosphodiesterase Enzymes (PDE4), [3H]cAMP hydrolysis; type: biochemical; conditions: PDE4 enzyme, 1 μM cAMP and 3H cAMP, 34° C.; read-out: IC50
Method: Inhibition of Phosphodiesterase Enzymes (PDE4)
In this assay, PDE4 enzyme converts [^3H] cAMP to the corresponding [^3H] 5′-AMP in proportion to the amount of PDE4 present The [^3H] 5′-AMP then was quantitatively converted to free [^3H] adenosine and phosphate by the action of snake venom 5′-nucleotidase.
The assay was performed with modification of the method of Thompson and Appleman (Biochemistry; 1971; 10; 311-316) and Schwartz and Passoneau (Proc. Natl. Acad. Sci. U.S.A. 1974; 71; 3844-3848), both references incorporated herein by reference in their entirety, at 34° C. In a 200 ul total reaction mixture, the reaction mixture contained 12.5 mM of Tris, 5 mM MgCl2, 1 μM cAMP (cold) and ^3H cAMP (0.1 uCi), (Amersham). […] Drug samples were then added in the reaction mixture (25 μl/tube). The assay was initiated by addition of enzyme mix (75 μl) and the mixture was incubated for 20 minutes at 34° C. The reaction was stopped by boiling the tubes for 2 mins at 100° C. in a water bath. After cooling on ice for 5 minutes and addition of 50 ug/reaction of 5′-nucleotidase snake venom from Crotalus atrox incubation was carried out again for 20 min. at 34° C. The unreacted substrate was separated from (^3H) Adenosine by addition of Dowex AG 1-X8 (Biorad Lab), (400 ul) which was prequilibrated (1:1:1) in water and ethanol. Reaction mixture was then thoroughly mixed, placed on ice for 15 minutes, vortexed and centrifuged at 14,000 r.p.m. for 2 mins. After centrifugation, a sample of the supernatant was taken and added in 24 well optiplates containing Scintillant (1 ml) and mixed well. The samples in the plates were then determined for radioactivity in a Top Counter and the PDE4 activity was estimated. PDE4 enzyme was present in quantities that yield <30% total hydrolysis of substrate (linear assay conditions).
Results were expressed as percent inhibition (IC50) in nM concentrations. The IC50 values were determined from the concentration curves by nonlinear regression analysis.
The IC50 value for the compound examined was determined from concentration-response curves in which varying range of concentrations were considered as shown in table 1

Compound | IC50
COc1ccc(C(=O)Nc2ccncc2)c2c1oc1ccccc12 [Example 3, N-(pyrid-4-yl)-4-methoxy dibenzo[b,d]furan-1-carboxamide] | 8.68 nM
O=C(Nc1cc[n+]([O-])cc1)c1ccc(OC(F)F)c2oc3ccc(C(F)(F)F)cc3c12 [Example 15, N-(pyrid-4-yl)-4-difluoromethoxy-8-trifluoromethyl dibenzo[b,d]furan-1-carboxamide-N1-oxide] | 67.3 nM
O=C(Nc1ccncc1)c1ccc(OC(F)F)c2oc3ccccc3c12 [Example 20, N-(pyrid-4-yl)-4-difluoromethoxy dibenzo[b,d]furan-1-carboxamide] | 15.8 nM
O=C(Nc1cc[n+]([O-])cc1)c1ccc(OC(F)F)c2oc3ccccc3c12 [Example 21, N-(pyrid-4-yl)-4-difluoromethoxy dibenzo[b,d]furan-1-carboxamide-N1-oxide] | 22.6 nM
O=C(Nc1cccnc1)c1ccc(OC(F)F)c2oc3ccccc3c12 [Example 22, N-(pyrid-3-yl)-4-difluoromethoxy dibenzo[b,d]furan-1-carboxamide] | 105 nM
O=C(Nc1ccc[n+]([O-])c1)c1ccc(OC(F)F)c2oc3ccccc3c12 [Example 23, N-(pyrid-3-yl)-4-difluoromethoxy dibenzo[b,d]furan-1-carboxamide-N1-oxide] | 147 nM
O=C(Nc1ccncc1)c1ccc(OCC2CC2)c2oc3ccccc3c12 [Example 27, N-(pyrid-4-yl)-4-cyclopropylmethoxy dibenzo[b,d]furan-1-carboxamide] | 73.5 nM
O=C(Nc1cccnc1)c1ccc(OCC2CC2)c2oc3ccccc3c12 [Example 29, N-(pyrid-3-yl)-4-cyclopropylmethoxy dibenzo[b,d]furan-1-carboxamide] | 351 nM
COc1ccc(C(=O)Nc2ccncc2)c2c1oc1ccc([N+](=O)[O-])cc12 [Example 39, N-(pyrid-4-yl)-4-methoxy-8-nitro dibenzo[b,d]furan-1-carboxamide] | 31.7 nM
COc1ccc(C(=O)Nc2ccncc2)c2c1oc1ccc(Br)cc12 [Example 43, N-(pyrid-4-yl)-4-methoxy-8-bromo-dibenzo[b,d]furan-1-carboxamide] | 61.2 nM
COc1ccc(C(=O)Nc2ccncc2)c2c1oc1ccc(I)cc12 [Example 46, N-(pyrid-4-yl)-4-methoxy-8-iodo-dibenzo[b,d]furan-1-carboxamide] | 36.8 nM
CCOc1ccc(C(=O)Nc2c(Cl)cncc2Cl)c2c1oc1ccccc12 [Example 60, 3,5-Dichloro-4-(4-ethoxydibenzo[b,d]furan-1-ylcarboxamido)pyridine] | 86.4 nM
CCOc1ccc(C(=O)Nc2c(Cl)c[n+]([O-])cc2Cl)c2c1oc1ccccc12 [Example 68, 3,5-Dichloro-4-(4-ethoxydibenzo[b,d]furan-1-ylcarboxamido)pyridine-N-oxide] | 57 nM
COc1ccc(C(=O)Nc2ccncc2)c2c1[nH]c1ccccc12 [Example 79, N4-(4-pyridyl)-1-methoxy-9H-4-carbazole carboxamide] | 128 nM
COc1ccc(C(=O)Nc2c(Cl)cncc2Cl)c2c3cc(Cl)ccc3n(Cc3ccccc3)c12 [Example 82, N4-(3,5-dichloro-4-pyridyl)-9-benzyl-6-chloro-1-methoxy-9H-4-carbazole carboxamide] | 19.6 nM
COc1ccc(C(=O)Nc2c(Cl)cncc2Cl)c2c3cc(Cl)ccc3n(CC3CCCCC3)c12 [Example 83, N4-(3,5-dichloro-4-pyridyl)-6-chloro-9-cyclohexylmethyl-1-methoxy-9H-4-carbazole carboxamide] | 5.26 nM
COc1ccc(C(=O)Nc2c(Cl)cncc2Cl)c2c3cc(Cl)ccc3n(Cc3ccc(F)cc3)c12 [Example 84, N4-(3,5-dichloro-4-pyridyl)-6-chloro-9-(4-fluorobenzyl)-1-methoxy-9H-4-carbazole carboxamide] | 14.6 nM
COc1ccc(Cn2c3ccc(Cl)cc3c3c(C(=O)Nc4c(Cl)cncc4Cl)ccc(OC)c32)cc1 [Example 85, N4-(3,5-dichloro-4-pyridyl)-6-chloro-9-(4-methoxybenzyl)-1-methoxy-9H-4-carbazolecarboxamide] | 8.15 nM
COc1ccc(C(=O)Nc2c(Cl)cncc2Cl)c2c3ccccc3n(Cc3ccc(F)cc3)c12 [Example 86, N4-(3,5-dichloro-4-pyridyl)-9-(4-fluorobenzyl)-1-methoxy-9H-4-carbazole carboxamide] | 72 nM
COc1ccc(C(=O)Nc2ccncc2)c2c3ccccc3n(Cc3ccc(F)cc3)c12 [Example 87, N4-(4-pyridyl)-9-(4-fluorobenzyl)-1-methoxy-9H-4-carbazole carboxamide] | 393 nM
COc1ccc(C(=O)Nc2c(Cl)cncc2Cl)c2c3ccccc3n(Cc3ccccc3)c12 [Example 88, N4-(3,5-dichloro-4-pyridyl)-9-benzyl-1-methoxy-9H-4-carbazolecarboxamide] | 129 nM
COc1ccc(C(=O)Nc2ccncc2)c2c3cc(Cl)ccc3n(Cc3ccc(F)cc3)c12 [Example 93, N4-(4-pyridyl)-6-chloro-9-(4-fluorobenzyl)-1-methoxy-9H -4-carbazolecarboxamide] | 161 nM
COc1ccc(C(=O)Nc2c(Cl)cncc2Cl)c2c3cccc(Cl)c3n(CC3CCCCC3)c12 [Example 94, N4-(3,5dichloro-4-pyridyl)-8-chloro-9-cyclohexylmethyl-1-methoxy-9H-4-carbazole carboxamide] | 281 nM
COc1ccc(C(=O)Nc2c(Cl)cncc2Cl)c2c3cccc(Cl)c3n(Cc3ccc(F)cc3)c12 [Example 95, N4-(3,5dichloro-4pyridyl)-8-chloro-9-(4-Fluorobenzyl)-1-methoxy-9H-4-carbazole carboxamide] | 78.9 nM
COc1ccc(C(=O)Nc2c(Cl)c[n+]([O-])cc2Cl)c2c3cc(Cl)ccc3n(Cc3ccc(F)cc3)c12 [Example 97, N4-(3,5-dichloro-4-pyridyl-N-oxide)-6-chloro-9-(4-fluorobenzyl)-1-methoxy-9H-4-carbazolecarboxamide] | 40.3 nM
COc1ccc(Cn2c3ccc(Cl)cc3c3c(C(=O)Nc4c(Cl)c[n+]([O-])cc4Cl)ccc(OC)c32)cc1 [Example 98, N4-(3,5-dichloro-4-pyridyl-N-oxide)-6-chloro-9-(4-methoxybenzyl)-1-methoxy-9H-4-carba-zolecarboxamide] | 39.6 nM
COc1ccc(C(=O)Nc2c(Cl)c[n+]([O-])cc2Cl)c2c3cc(Cl)ccc3n(CC3CCCCC3)c12 [Example 99, N4-(3,5-dichloro-4-pyridyl-N-oxide)-6-chloro-9-cyclohexylmethyl-1-methoxy-9-H-4-carbazolecarboxamide] | 30.1 nM
COc1ccc(NS(=O)(=O)c2ccc(OC)c3sc4ccc(S(=O)(=O)N(C)C)cc4c23)cc1 [Example 115, N1-(4-methoxyphenyl)-8,N8-dimethyl-4-methoxydibenzo[b,d]thiophen-8,1-disulfonamide] | 37.4 nM
O=C(Nc1c(Cl)cncc1Cl)c1ccc(OC(F)F)c2oc3ccc(N4CCCC4=O)cc3c12 [Example 121, N-(3,5-dichloropyrid-4-yl)-4-difluoromethoxy-8-(pyrrolidine-2-one-1-yl)-dibenzo[b,d]furan-1-carboxamide] | 21.5 nM
